Data from PMC11124341, “4-Hydroxybenzoic Acid-Based Hydrazide–Hydrazones as Potent Growth Inhibition Agents of Laccase-Producing Phytopathogenic Fungi That Are Useful in the Protection of Oilseed Crops” (Molecules, 2024).
In brackets after ≈: the same amount, converted by molar mass.

Key:
[1] = tested on: Sclerotinia sclerotiorum strain FSc10; experiment: In vitro antifungal activity, mycelial growth inhibition on PDA medium; format: cell-based; details: for fungal growth inhibition, S. sclerotiorum / inhibition of growth at 50 µg/mL: screening at basal 50 µg/mL, PDA medium, mean ± SD of three determinations; for IC50: log-logistic model, 0–50 µg/mL range, read-out: IC50 against Sclerotinia sclerotiorum (Ss); for inhibition of growth at 50 µg/mL: read-out: fungal growth inhibition, S. sclerotiorum
Experimental: (§1) The cultures of Botrytis cinerea strain FBc05 and Sclerotinia sclerotiorum strain FSc10 were obtained from the collection of the Division of Plant Pathology and Mycology at the Department of Plant Protection of Wroclaw University of Environmental and Life Sciences (Poland). Cerrena unicolor (Bull.ex.Fr.) Murr, strain no. 139, originated from the culture collection of the Department of Biochemistry, University of Lublin (Poland). The stock cultures were maintained on potato dextrose agar at +4 °C and periodically transferred to a fresh medium.
(§2) Prior to the fungicidal activity assay of hydrazide–hydrazones 1–35, we considered ethanol and DMSO as potential dissolution media for tested compounds. […] Furthermore, a very important aspect of biological testing is the careful selection of organic solvents. These are typically used, e.g., methanol, ethanol, acetone, and DMSO, and may be highly toxic for microorganisms in even very low concentrations, such as 1% (v/v). Ethanol and DMSO with a final concentration between 0.1 and 1.0% (v/v) in a PDA medium were used and applied to evaluate the inhibition growth of B. cinerea, S. sclerotiorum, and C. unicolor (see Supplementary Materials). The following procedure was applied to the microorganism testing. The assays of fungi inhibition growth were performed at a basal concentration of 50 µg/mL for all compounds, and detailed experiments were extended for testing between 0 and 50 µg/mL (0, 6.25, 12.5, 25.0, and 50.0 µg/mL) for selected compounds. The tests were carried out on Petri dishes (diameter 60 mm) with PDA medium containing appropriate compound, co-solvent control, and hydrazide–hydrazone dissolved in co-solvent assay. A piece of mycelium with a 5 mm edge taken from the outer edge of the growing fungi on the PDA plate with co-solvent was transferred to a central part of the PDA plate with the examined compound. The plates thus inoculated were incubated at 22 °C in the dark for a time when the control plate containing only the co-solvent was covered entirely with the tested microorganism. For B. cinerea and S. sclerotiorum, the test took 3 days, and for C. unicolor, it took 7 days. Each assay was performed at least in triplicate. […] Model parameters c and e were estimated using the nonlinear least-squares method. Parameters d and b (with two exceptions) were fixed and assumed to be equal. Based on estimated parameters, the values of IC50 were determined. […] The IC50 values were calculated only in cases when the model predicted a decrease in growth rate by more than 50%.
(§3) In vitro antifungal activity
(§4) Prior to the fungicidal activity assay of hydrazide-hydrazones 1–35, we considered ethanol (EtOH) and DMSO as potential dissolution media for tested compounds.
(§5) EtOH and DMSO with a final concentration between 0.1–1.0% (v/v) in a PDA medium were applied to evaluate the inhibition growth of B. cinerea, S. sclerotiorum, and C. unicolor (see Table S3). The following procedure was applied to the microorganism testing with the hydrazide-hydrazones. The assays of fungi inhibition growth were performed at a basal concentration of 50 µg/mL for all compounds, and detailed experiments were extended for testing selected molecules 18, 19, 27, […]
(§6) Table S2. In vitro antifungal activity for DMSO and ethanol co-solvents.

[2] = tested on: Cerrena unicolor strain no. 139; experiment: as above; format: cell-based; details: for inhibition of growth at 50 µg/mL / fungal growth inhibition, C. unicolor: screening at basal 50 µg/mL, PDA medium, mean ± SD of three determinations; for inhibition of growth at 50 µg/mL: read-out: fungal growth inhibition, C. unicolor
Experimental: as §1, §2, §3, §4, §5, §6

[3] = tested on: Botrytis cinerea strain FBc05; experiment: as above; format: cell-based; details: for inhibition of growth at 50 µg/mL / fungal growth inhibition, B. cinerea: screening at basal 50 µg/mL, PDA medium, mean ± SD of three determinations; for inhibition of growth at 50 µg/mL: read-out: fungal growth inhibition, B. cinerea; for IC50: log-logistic model, 0–50 µg/mL range, read-out: IC50 against Botrytis cinerea (Bc)
Experimental: as §1, §2, §3, §4, §5, §6

[4] = molecular target: laccase from Trametes versicolor; details: read-out: Laccase inhibition, Ki; cited from earlier work
[5] = Sclerotinia sclerotiorum, FSC10

Row | Compound | fungal growth inhibition, S. sclerotiorum [1] | inhibition of growth at 50 µg/mL ([2]; Cerrena unicolor, NO.139) [%] | inhibition of growth at 50 µg/mL ([3]; Botrytis cinerea, FBC05) [%] | Ki [4] [µM] | fungal growth inhibition, B. cinerea [3] | further results
1 | COc1ccc(/C=N/NC(=O)c2ccc(O)cc2)cc1 [compound 11] | n.o. | 11.7 ± 3.5 | 4.4 ± 0.9 | ≥ 2400 | – | –
2 | Cc1cc(CO)cc(/C=N/NC(=O)c2ccc(O)cc2)c1O [compound 24] | n.o. | 42 ± 2.1 | – | ≥ 1000 | n.o. | –
3 | COc1cccc(/C=N/NC(=O)c2ccc(O)cc2)c1 [compound 10] | n.o. | – | 3.9 ± 2.4 | 416 | – | fungal growth inhibition, C. unicolor [2]: n.o.
4 | O=C(N/N=C/c1cc(Br)ccc1O)c1ccc(O)cc1 [compound 14] | n.o. | 56.8 ± 8.4 | – | ≥ 1000 | n.o. | –
5 | Cc1ccc(C(C)C)c(O)c1/C=N/NC(=O)c1ccc(O)cc1 [compound 28] | – | 38.2 ± 2.3 | 50.8 ± 2.6 | > 1000 | – | IC50 [1, 5]: 9.8 µg/mL (≈ 31.4 µM); inhibition of growth at 50 µg/mL [1, 5]: 91.4 ± 2.2%; IC50 ([3]; Botrytis cinerea, FBC05): 52.7 µg/mL (≈ 169 µM)
6 | O=C(N/N=C/c1ccccc1)c1ccc(O)cc1 [compound 1] | n.o. | 10.6 ± 1.1 | 2.6 ± 0.2 | 1470 | – | –
7 | O=C(N/N=C/c1cccc(O)c1)c1ccc(O)cc1 [compound 7] | n.o. | 12.6 ± 4.1 | 3.7 ± 1.8 | 2400 | – | –
8 | CC(C)c1ccc(/C=N/NC(=O)c2ccc(O)cc2)cc1 [compound 4] | n.o. | 20.9 ± 2.8 | 12 ± 2.6 | – | – | –
9 | CC(=O)NN=Cc1cc(C)cc(C(C)(C)C)c1O [compound 35] | n.o. | 45.7 ± 0.5 | – | ≥ 1000 | n.o. | –
10 | COc1cccc(OC)c1/C=N/NC(=O)c1ccc(O)cc1 [compound 16] | n.o. | 32.1 ± 3.1 | – | ≥ 1000 | n.o. | –
11 | O=C(N/N=C/c1ccccc1O)c1ccc(O)cc1 [compound 6] | n.o. | 14.7 ± 0.3 | 4.7 ± 1.1 | 674 | – | –
12 | Cc1cc(/C=N/NC(=O)c2ccccc2)c(O)c(C(C)(C)C)c1 [compound 33] | n.o. | 36.6 ± 1.2 | 3.9 ± 0.6 | 82 | – | –
13 | O=C(N/N=C/CCc1ccccc1)c1ccc(O)cc1 [compound 2] | n.o. | 18 ± 3.2 | – | 1920 | n.o. | –
14 | O=C(N/N=C/c1ccc(O)cc1O)c1ccc(O)cc1 [compound 21] | n.o. | 30.1 ± 4.3 | – | 939 | n.o. | –
15 | CCO [EtOH, ethanol] | – | – | – | – | – | IC50 of co-solvent, S. sclerotiorum ([1]; co-solvent at 0.1–1.0% (v/v) in PDA medium): n.o.
16 | COc1cc(O)c(/C=N/NC(=O)c2ccc(O)cc2)c(OC)c1 [compound 29] | n.o. | 9.1 ± 1.9 | 8.1 ± 0.6 | ≥ 1000 | – | –
17 | Cc1cc(/C=N/NC(=O)c2cccnc2)c(O)c(C(C)(C)C)c1 [compound 34] | n.o. | 29.6 ± 2.7 | 7.5 ± 0.6 | – | – | –
18 | COc1ccccc1/C=N/NC(=O)c1ccc(O)cc1 [compound 9] | n.o. | 22.3 ± 2.6 | 3.3 ± 1.2 | 1060 | – | –
19 | O=C(N/N=C/c1ccc([N+](=O)[O-])o1)c1ccc(O)cc1 [compound 12, Nifuroxazide, reference compound] | no activity and n.o. | 19.5 ± 2.8 | 3.3 ± 1.2 | – | no activity | –
20 | Cc1ccc(/C=N/NC(=O)c2ccc(O)cc2)cc1 [compound 3] | n.o. | – | 3.3 ± 1.1 | 251 | – | fungal growth inhibition, C. unicolor [2]: n.o.
21 | O=C(N/N=C/c1ccccc1S(=O)(=O)[O-])c1ccc(O)cc1.[Na+] [compound 5] | n.o. | 23.6 ± 4.2 | – | ≥ 2400 | n.o. | –
22 | COc1cccc(O)c1/C=N/NC(=O)c1ccc(O)cc1 [compound 15] | n.o. | 43.1 ± 3 | – | ≥ 1000 | n.o. | –
23 | COc1ccc(C(=O)N/N=C/c2cc(C)cc(C(C)(C)C)c2O)cc1 [compound 31] | n.o. | 13.8 ± 3.9 | 2.1 ± 0.9 | 25.8 | – | –
24 | O=C(N/N=C/c1ccc(O)cc1)c1ccc(O)cc1 [compound 8] | n.o. | 14.3 ± 1.7 | 4.2 ± 1.5 | 638 | – | –
25 | CC1(C(=O)Nc2ccc(O)c(Cl)c2Cl)CCCCC1 [Fenhexamid, reference compound] | – | 39.9 ± 0.7 | 99.9 ± 0.4 | – | – | inhibition at 6.25 µg/mL ([1]; Sclerotinia sclerotiorum, FSC10, fungicidal profile, 6.25 µg/mL, read-out: S. sclerotiorum inhibition): 95.6%; inhibition at 12.5 µg/mL ([1]; Sclerotinia sclerotiorum, FSC10, fungicidal profile, 12.5 µg/mL, read-out: S. sclerotiorum inhibition): 96.3%; IC50 [1, 5]: 4.2 µg/mL (≈ 13.9 µM); inhibition of growth at 50 µg/mL [1, 5]: 100 ± 0.3%; inhibition at 50 µg/mL ([2]; Cerrena unicolor, NO.139, fungicidal profile, 50 µg/mL, read-out: C. unicolor inhibition): 32.1%; inhibition at 6.25 µg/mL ([3]; Botrytis cinerea, FBC05, fungicidal profile, 6.25 µg/mL, read-out: B. cinerea inhibition): 98.5%; inhibition at 50 µg/mL ([3]; Botrytis cinerea, FBC05, fungicidal profile, 50 µg/mL, read-out: B. cinerea inhibition): 100%; IC50 ([3]; Botrytis cinerea, FBC05): 0.1 µg/mL (≈ 0.331 µM)
26 | COc1ccc(C(=O)N/N=C/c2cccc(-c3ccccc3)c2O)cc1 [compound 20] | n.o. | 35.4 ± 2.4 | 3.3 ± 1.2 | ≥ 1000 | – | –
